# According to ChEMBL document CHEMBL5370557, “Structure-based discovery of IHMT-IDH1-053 as a potent irreversible IDH1 mutant selective inhibitor” (Eur J Med Chem, 2023):
# Calls of active or inactive are those of the source. The rule behind the calls is not given here.
# Legend:
# [1] = molecular target: T1, Isocitrate dehydrogenase [NADP] cytoplasmic (Homo sapiens, UniProt O75874, R132H); assay: Inhibition of IDH1 R132H mutant (unknown origin) expressed in HEK293T cells assessed as inhibition of 2-HG generation measured after 48 hrs by LC-MS/MS analysis; type: cell-based
# T1 sequence (O75874 2-414 R132H limits assumed): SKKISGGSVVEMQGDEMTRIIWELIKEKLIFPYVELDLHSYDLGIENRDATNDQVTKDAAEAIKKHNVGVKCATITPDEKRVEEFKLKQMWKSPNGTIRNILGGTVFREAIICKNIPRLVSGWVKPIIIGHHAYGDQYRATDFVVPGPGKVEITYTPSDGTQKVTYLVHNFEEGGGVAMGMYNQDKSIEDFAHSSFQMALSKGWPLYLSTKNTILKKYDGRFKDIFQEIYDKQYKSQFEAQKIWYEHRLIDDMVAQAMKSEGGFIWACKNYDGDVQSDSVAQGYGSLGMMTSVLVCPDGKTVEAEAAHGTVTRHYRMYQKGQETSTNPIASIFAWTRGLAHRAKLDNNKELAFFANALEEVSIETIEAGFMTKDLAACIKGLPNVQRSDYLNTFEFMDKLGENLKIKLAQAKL
# [2] = molecular target: T1, Isocitrate dehydrogenase [NADP] cytoplasmic; assay: Inhibition of IDH1 R132H mutant (unknown origin) expressed in Escherichia coli BL21 (DE3) assessed as NADPH consumption using alpha-KG as substrate measured after 60 mins
# [3] = Tmax in Sprague-Dawley rat at 10 mg/kg, po measured upto 24 hrs by LC-MS/MS analysis; type: ADME, organism-based; conditions: in vivo
# [4] = molecular target: Isocitrate dehydrogenase [NADP], mitochondrial (Homo sapiens, UniProt P48735, R140Q); assay: Inhibition of IDH2 R140Q mutant (unknown origin) expressed in Escherichia coli BL21 (DE3) assessed as NADPH consumption using alpha-KG as substrate measured after 60 mins
# Chain of Isocitrate dehydrogenase [NADP], mitochondrial (Homo sapiens, UniProt P48735, R140Q) (P48735 40-452 R140Q limits assumed): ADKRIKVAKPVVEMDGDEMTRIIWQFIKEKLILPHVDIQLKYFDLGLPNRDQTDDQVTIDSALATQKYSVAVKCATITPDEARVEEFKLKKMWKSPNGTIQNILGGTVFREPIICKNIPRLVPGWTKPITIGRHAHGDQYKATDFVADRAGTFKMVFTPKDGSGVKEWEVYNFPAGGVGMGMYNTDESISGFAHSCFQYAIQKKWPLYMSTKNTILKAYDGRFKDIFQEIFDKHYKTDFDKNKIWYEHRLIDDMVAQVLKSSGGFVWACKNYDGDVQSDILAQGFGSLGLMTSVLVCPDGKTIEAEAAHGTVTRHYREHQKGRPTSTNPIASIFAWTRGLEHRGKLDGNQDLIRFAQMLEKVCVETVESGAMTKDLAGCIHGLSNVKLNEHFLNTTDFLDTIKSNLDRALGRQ
# [5] = molecular target: Isocitrate dehydrogenase [NADP] cytoplasmic (Homo sapiens, UniProt O75874, R132C); assay: Inhibition of IDH1 R132C mutant (unknown origin) expressed in Escherichia coli BL21 (DE3) assessed as NADPH consumption using alpha-KG as substrate measured after 60 mins
# Chain of Isocitrate dehydrogenase [NADP] cytoplasmic (Homo sapiens, UniProt O75874, R132C) (O75874 2-414 R132C limits assumed): as the sequence (O75874 2-414 R132H limits assumed) above, with H131C counted along it
# [6] = molecular target: T2, Isocitrate dehydrogenase [NADP], mitochondrial (Homo sapiens, UniProt P48735); assay: Inhibition of wild type IDH2 (unknown origin) expressed in Escherichia coli BL21 (DE3) assessed as NADPH consumption using alpha-KG as substrate measured after 60 mins
# T2 sequence (P48735 whole entry): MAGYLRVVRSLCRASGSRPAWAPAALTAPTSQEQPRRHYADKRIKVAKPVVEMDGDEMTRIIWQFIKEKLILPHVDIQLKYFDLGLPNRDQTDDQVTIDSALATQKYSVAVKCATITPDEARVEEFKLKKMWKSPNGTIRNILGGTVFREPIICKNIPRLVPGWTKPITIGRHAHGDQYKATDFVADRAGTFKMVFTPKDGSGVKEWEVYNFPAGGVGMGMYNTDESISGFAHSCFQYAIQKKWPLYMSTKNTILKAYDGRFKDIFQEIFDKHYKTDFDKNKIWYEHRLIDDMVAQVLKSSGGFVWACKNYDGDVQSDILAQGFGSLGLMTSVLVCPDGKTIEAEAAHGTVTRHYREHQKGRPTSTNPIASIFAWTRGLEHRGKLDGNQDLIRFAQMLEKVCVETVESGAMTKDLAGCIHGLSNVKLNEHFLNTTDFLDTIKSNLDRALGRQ
# [7] = molecular target: Isocitrate dehydrogenase [NADP] cytoplasmic (Homo sapiens, UniProt O75874); assay: Inhibition of wild type IDH1 (unknown origin) expressed in Escherichia coli BL21 (DE3) assessed as NADPH consumption using alpha-KG as substrate measured after 60 mins
# Chain of Isocitrate dehydrogenase [NADP] cytoplasmic (Homo sapiens, UniProt O75874) (O75874 whole entry): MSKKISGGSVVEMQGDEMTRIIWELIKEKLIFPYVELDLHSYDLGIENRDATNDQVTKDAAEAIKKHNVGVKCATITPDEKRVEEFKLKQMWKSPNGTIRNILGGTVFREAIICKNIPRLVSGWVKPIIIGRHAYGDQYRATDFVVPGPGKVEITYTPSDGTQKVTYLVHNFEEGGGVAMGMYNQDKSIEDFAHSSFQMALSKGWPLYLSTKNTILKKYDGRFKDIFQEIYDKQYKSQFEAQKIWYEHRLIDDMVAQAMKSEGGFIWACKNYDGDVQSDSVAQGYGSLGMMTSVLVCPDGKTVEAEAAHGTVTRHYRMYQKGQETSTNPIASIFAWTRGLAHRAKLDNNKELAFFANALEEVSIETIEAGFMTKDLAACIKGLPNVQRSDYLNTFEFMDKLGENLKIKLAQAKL
# [8] = test system: Isocitrate dehydrogenase [NADP] cytoplasmic (Homo sapiens), O75874 [R132H]; assay: Binding affinity to IDH1 R132H mutant (unknown origin) expressed in Escherichia coli BL21 (DE3) assessed as ratio of Kinact/Ki
# Chain of Isocitrate dehydrogenase [NADP] cytoplasmic (Homo sapiens), O75874 [R132H] (O75874 whole entry R132H): as the sequence (O75874 whole entry) above, with R132H counted along it
# [9] = Half life in Sprague-Dawley rat at 10 mg/kg, po measured upto 24 hrs by LC-MS/MS analysis; type: ADME, organism-based; conditions: in vivo
# [10] = AUC (0 to t) in Sprague-Dawley rat at 1 mg/kg, iv measured upto 24 hrs by LC-MS/MS analysis; type: ADME, organism-based; design: dose 1 mg/kg, time < 24 hrs, route iv; conditions: in vivo
# [11] = Apparent volume of distribution in Sprague-Dawley rat at 1 mg/kg, iv measured upto 24 hrs by LC-MS/MS analysis; type: ADME, organism-based; conditions: in vivo, read-out: Vz
# [12] = Cmax in Sprague-Dawley rat at 1 mg/kg, iv measured upto 24 hrs by LC-MS/MS analysis; type: ADME, organism-based; design: dose 1 mg/kg, time < 24 hrs, route iv; conditions: in vivo
# [13] = Oral bioavailability in Sprague-Dawley rat at 10 mg/kg measured upto 24 hrs by LC-MS/MS analysis; type: ADME, organism-based; conditions: in vivo
# [14] = Cmax in Sprague-Dawley rat at 10 mg/kg, po measured upto 24 hrs by LC-MS/MS analysis; type: ADME, organism-based; design: time < 24 hrs, dose 10 mg/kg, route po; conditions: in vivo
# [15] = In vivo inhibition of IDH1 mutant activity in tumor of human HT-1080 cells xenografted in Balb/c mouse model assessed as reduction in 2-HG level at […], ip single administration measured upto 2 hrs relative to control; type: functional
# [16] = Apparent volume of distribution in Sprague-Dawley rat at 10 mg/kg, po measured upto 24 hrs by LC-MS/MS analysis; type: ADME, organism-based; conditions: in vivo
# [17] = Half life in Sprague-Dawley rat at 1 mg/kg, iv measured upto 24 hrs by LC-MS/MS analysis; type: ADME, organism-based; conditions: in vivo
# [18] = Clearance in Sprague-Dawley rat at 10 mg/kg, po measured upto 24 hrs by LC-MS/MS analysis; type: ADME, organism-based; conditions: in vivo
# [19] = molecular target: T1, Isocitrate dehydrogenase [NADP] cytoplasmic; assay: Reversible binding affinity to IDH1 R132H mutant (unknown origin) expressed in Escherichia coli BL21 (DE3) assessed as inhibition constant
# HT-1080 = assay: Antiproliferative activity against human HT-1080 cells assessed as cell viability at 0.3 to 10 uM treated for 2 hrs followed by compound removal after 72 hrs by CellTiter-Glo assay; type: functional, cell-based; conditions: dose 0.3-10 µM
# [20] = test system: Isocitrate dehydrogenase [NADP] cytoplasmic (Homo sapiens), O75874 [R132H]; assay: Binding affinity to IDH1 R132H mutant (unknown origin) expressed in Escherichia coli BL21 (DE3) assessed as inactivation constant
# [21] = molecular target: Isocitrate dehydrogenase [NADP], mitochondrial (Homo sapiens, UniProt P48735, R172K); assay: Inhibition of IDH2 R172K mutant (unknown origin) expressed in Escherichia coli BL21 (DE3) assessed as NADPH consumption using alpha-KG as substrate measured after 60 mins
# Chain of Isocitrate dehydrogenase [NADP], mitochondrial (Homo sapiens, UniProt P48735, R172K) (P48735 40-452 R172K limits assumed): as the sequence (P48735 40-452 R140Q limits assumed) above, with Q101R, R133K counted along it
# [22] = AUC (0 to t) in Sprague-Dawley rat at 10 mg/kg, po measured upto 24 hrs by LC-MS/MS analysis; type: ADME, organism-based; design: time < 24 hrs, dose 10 mg/kg, route po; conditions: in vivo
# [23] = test system: Acute myeloid leukemic cell; assay: Antiproliferative activity against human primary AML cells expressing IDH1-R132 mutant assessed as cell viability at 0.3 to 10 uM treated for 2 hrs followed by compound removal after 72 hrs by CellTiter-Glo assay; type: functional, cell-based; conditions: dose 0.3-10 µM
# [24] = Tmax in Sprague-Dawley rat at 1 mg/kg, iv measured upto 24 hrs by LC-MS/MS analysis; type: ADME, organism-based; conditions: in vivo
structure (smiles),measurement,setting,value
CC(C)[C@H]1COC(=O)N1c1nc(N[C@@H](C)c2ccc(Nc3ccc(NC(=O)CCl)c(N4CCOCC4)c3)cc2)ncc1F,IC50,[1],10 µM
same,IC50,[2],> 10 µM
C=CS(=O)(=O)NC1CCCN(c2ccc([C@H](C)Nc3ncc(F)c(N4C(=O)OC[C@@H]4C(C)C)n3)cc2)C1 (stereo partly specified),IC50,[1],0.214 µM
same,IC50,[2],0.119 µM
CCS(=O)(=O)NC1CCN(c2ccc([C@H](C)Nc3nccc(N4C(=O)OC[C@@H]4C(C)C)n3)cc2)CC1,IC50,[2],0.541 µM
C=CS(=O)(=O)NC1CCN(c2ccc([C@H](C)Nc3ncc(F)c(N4C(=O)OC[C@@H]4C(C)C)n3)cc2)CC1,Tmax,[3],15 min
same,IC50,[4],> 10 µM
same,IC50,[5],0.139 µM
same,IC50,[6],> 10 µM
same,IC50,[7],> 10 µM
same,Ratio,[8],0.007 µM⁻¹ s⁻¹
same,IC50,[1],0.028 µM
same,half-life,[9],18 min
same,AUCt,[10],0.26761 µg·h/mL
same,Vd,[11],5.39 L/kg
same,Cmax,[12],0.19967 µg/mL
same,F,[13],9.26%
same,Cmax,[14],0.0881 µg/mL
same,inhibition (INH),[15],>85%
same,Vz,[16],118.878 L/kg
same,t1/2,[17],9.6 min
same,CL/F,[18],260 L/h/kg
same,Ki,[19],0.037 µM
same,Activity,HT-1080,Active
same,Kinact,[20],0.015 min⁻¹
same,IC50,[21],> 10 µM
same,IC50,[2],0.0047 µM
same,AUCt,[22],0.03631 µg·h/mL
same,Activity,[23],Active
same,Tmax,[24],1.8 min
C=CC(=O)Nc1cc(-c2ccc([C@H](C)Nc3ncc(F)c(N4C(=O)OC[C@@H]4C(C)C)n3)cc2)ccc1N(C)C,IC50,[2],0.63 µM
CCS(=O)(=O)NC1CCN(c2ccc([C@H](C)Nc3ncc(F)c(N4C(=O)OC[C@@H]4C(C)C)n3)cc2)CC1,IC50,[1],1.47 µM
same,IC50,[2],0.143 µM
CC(C)[C@H]1COC(=O)N1c1nc(N[C@@H](C)c2ccc(N3CCCC(NC(=O)CCl)C3)cc2)ncc1F (stereo partly specified),IC50,[2],0.516 µM
C=CC(=O)NC1CCN(c2ccc([C@H](C)Nc3nccc(N4C(=O)OC[C@@H]4C(C)C)n3)cc2)CC1,IC50,[2],6.51 µM
C=CS(=O)(=O)Nc1ccc(Nc2ccc([C@H](C)Nc3ncc(F)c(N4C(=O)OC[C@@H]4C(C)C)n3)cc2)cc1N1CCN(CC)CC1,IC50,[1],0.864 µM
same,IC50,[2],0.245 µM
C=CS(=O)(=O)Nc1ccc(Nc2ccc([C@H](C)Nc3ncc(F)c(N4C(=O)OC[C@@H]4C(C)C)n3)cc2)cc1N(C)C,IC50,[1],1.25 µM
same,IC50,[2],0.048 µM
C=CS(=O)(=O)Nc1ccc(Nc2ccc([C@H](C)Nc3nccc(N4C(=O)OC[C@@H]4C(C)C)n3)cc2)cc1N1CCN(CC)CC1,IC50,[2],0.547 µM
C=CC(=O)Nc1ccc(Nc2ccc([C@H](C)Nc3ncc(F)c(N4C(=O)OC[C@@H]4C(C)C)n3)cc2)cc1N1CCOCC1,IC50,[1],0.331 µM
same,IC50,[2],0.976 µM
CCS(=O)(=O)NC1CCN(c2ccc([C@H](C)Nc3ncc(C#N)cn3)cc2)CC1,IC50,[2],3.49 µM
N#Cc1ccnc(N2C(=O)CC[C@H]2C(=O)N(c2cncc(F)c2)[C@H](C(=O)NC2CC(F)(F)C2)c2ccccc2Cl)c1 [IVOSIDENIB],IC50,[4],> 10 µM
same,IC50,[6],> 10 µM
same,IC50,[21],> 10 µM
CCC(=O)Nc1cc(Nc2ccc([C@H](C)Nc3ncc(F)c(N4C(=O)OC[C@@H]4C(C)C)n3)cc2)ccc1N1CCOCC1,IC50,[1],0.126 µM
same,IC50,[2],0.077 µM
CCS(=O)(=O)Nc1ccc(Nc2ccc([C@H](C)Nc3ccc(C#N)cn3)cc2)cc1N(C)C,IC50,[2],2.77 µM
C=CS(=O)(=O)NC1CCN(c2ccc([C@H](C)Nc3nccc(N4C(=O)OC[C@@H]4C(C)C)n3)cc2)CC1,IC50,[1],0.037 µM
same,IC50,[2],0.192 µM
C=CS(=O)(=O)Nc1ccc(Nc2ccc([C@H](C)Nc3ncc(F)c(N4C(=O)OC[C@@H]4C(C)C)n3)cc2)cc1F,IC50,[1],0.045 µM
same,IC50,[2],0.0059 µM
CCC(=O)Nc1ccc(Nc2ccc([C@H](C)Nc3nccc(N4C(=O)OC[C@@H]4C(C)C)n3)cc2)cc1N1CCN(CC)CC1,IC50,[2],2.76 µM
C=CS(=O)(=O)N1CCC(Nc2ccc([C@H](C)Nc3nccc(N4C(=O)OC[C@@H]4C(C)C)n3)cc2)CC1,IC50,[1],0.171 µM
same,IC50,[2],0.161 µM
